Laboratory results as given in patent US11382900B2, “Composition for preventing or treating sleep disorders” (AMOREPACIFIC CORPORATION, priority 2017, dated 2022).
Where two headings read alike, the source gives them in different places.

Assays:
[1] = design: species or system C57BL/6 mice; conditions: in vivo; for increase in body temperature: C57BL/6, mouse, 2 h; for concentration dependence of body temperature increase: mouse
Experimental: As described above, AMG 517, a representative reference drug as a TRPV1 antagonist, and the compound of Formula 1 of the present invention were tested for the increase in body temperature during transdermal administration.

[2] = Change in body temperature after oral administration (nonclinical); assay type: in vivo, Balb/c mice; conditions: for change in body temperature, dose dependence: up to 4 hours, AMG 517 0.03, 0.1, 0.3 mg/kg, compound of Formula 1 3, 10, 30 mg/kg
Description: Meanwhile, when the same drug was orally administered, a concentration-dependent increase in body temperature due to TRPV1 antagonism was observed as expected (see FIGS. 2A and 2B).

[3] = rats, oral dose of 3 mg/kg; cited from earlier work
TRPV1 = biological target: T1, TRPV1 (Rattus norvegicus, UniProt O35433); conditions: rats; cited from earlier work
T1 construct: host or cells: living rats (endogenous protein)

[4] = oral administration for treatment of dental pain; cited from earlier work

T1 sequence (O35433 whole entry): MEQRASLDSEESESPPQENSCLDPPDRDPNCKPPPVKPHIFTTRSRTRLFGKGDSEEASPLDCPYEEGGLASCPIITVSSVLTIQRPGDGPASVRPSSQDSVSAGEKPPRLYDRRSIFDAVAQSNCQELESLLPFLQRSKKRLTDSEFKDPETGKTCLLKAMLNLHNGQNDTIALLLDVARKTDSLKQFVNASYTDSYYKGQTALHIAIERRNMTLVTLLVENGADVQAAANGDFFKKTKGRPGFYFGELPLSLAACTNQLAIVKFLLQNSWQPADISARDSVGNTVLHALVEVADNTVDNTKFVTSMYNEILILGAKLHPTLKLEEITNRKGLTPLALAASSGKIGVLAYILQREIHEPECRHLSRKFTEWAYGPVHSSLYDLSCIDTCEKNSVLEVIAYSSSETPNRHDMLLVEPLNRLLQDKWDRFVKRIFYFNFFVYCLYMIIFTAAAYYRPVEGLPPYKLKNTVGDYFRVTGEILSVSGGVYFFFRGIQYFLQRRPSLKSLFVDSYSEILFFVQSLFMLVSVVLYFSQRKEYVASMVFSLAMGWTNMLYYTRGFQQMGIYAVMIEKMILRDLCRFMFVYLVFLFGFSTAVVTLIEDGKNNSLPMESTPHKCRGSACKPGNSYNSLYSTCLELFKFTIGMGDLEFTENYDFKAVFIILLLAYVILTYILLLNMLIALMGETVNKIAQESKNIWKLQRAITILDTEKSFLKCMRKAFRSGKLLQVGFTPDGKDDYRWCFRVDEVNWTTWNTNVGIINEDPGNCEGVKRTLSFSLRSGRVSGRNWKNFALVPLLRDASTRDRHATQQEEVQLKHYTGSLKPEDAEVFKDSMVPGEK

| Compound | increase in body temperature [1] | concentration dependence of body temperature increase [1] | change in body temperature, dose dependence [2] | change in body temperature at lowest dose ([2]; 0.03 mg/kg) | increase in body temperature [3] | effective concentration to maximize analgesic efficacy (TRPV1) | body temperature raised in human [4] | hyperthermia side effect [4] |
| --- | --- | --- | --- | --- | --- | --- | --- | --- |
| CCCc1nc(C(F)(F)F)ccc1/C=C/C(=O)N[C@H](C)c1cc(F)c(NS(C)(=O)=O)c(F)c1 [compound of Formula 1] | ~0.84 °C | no concentration dependence was observed | increased body temperature in a dose—dependent manner |  |  |  |  |  |
| CC(=O)Nc1nc2c(Oc3cc(-c4ccc(C(F)(F)F)cc4)ncn3)cccc2s1 [AMG 517] | ~1.59 °C | significant concentration-dependent increase in body temperature | increased body temperature in a dose—dependent manner | significantly increased body temperature | about 1.3 °C | less than 0.3 mg/kg | up to 40 °C | concentration-dependent side effect of hyperthermia |
